Results: the supplement of paper PMC10307832

Legend:
Test in all cases: relative viability (nuclei count vs DMSO), 5 days (fraction); higher = more cells survive
Avagacestat + Decitabine = compound: NC(=O)[C@@H](CCC(F)(F)F)N(Cc1ccc(-c2ncon2)cc1F)S(=O)(=O)c1ccc(Cl)cc1 [Avagacestat] + Nc1ncn([C@H]2C[C@H](O)[C@@H](CO)O2)c(=O)n1 [Decitabine] (partner 2 µM)
How it was run: (§1)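 Relative viability divides the nuclei count in treated wells by that in vehicle wells. Lung cancer cell lines were seeded in 1536-well plates, dosed by pin tool the next day, and fixed and stained after 5 days in one step with final 0.05% Triton X-100, 1% formaldehyde and 1 ug/ml Hoechst. Dosing was a single drug or a fixed anchor-drug dose plus five library-drug doses (not always all listed) in √10 steps, and values are medians of duplicate plates imaged at 4×.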

Avagacestat + Lapatinib = compound: NC(=O)[C@@H](CCC(F)(F)F)N(Cc1ccc(-c2ncon2)cc1F)S(=O)(=O)c1ccc(Cl)cc1 [Avagacestat] + CS(=O)(=O)CCNCc1ccc(-c2ccc3ncnc(Nc4ccc(OCc5cccc(F)c5)c(Cl)c4)c3c2)o1 [Lapatinib] (partner 2 µM)
How it was run: as §1

Avagacestat + Tozasertib = compound: NC(=O)[C@@H](CCC(F)(F)F)N(Cc1ccc(-c2ncon2)cc1F)S(=O)(=O)c1ccc(Cl)cc1 [Avagacestat] + Cc1cc(Nc2cc(N3CCN(C)CC3)nc(Sc3ccc(NC(=O)C4CC4)cc3)n2)n[nH]1 [Tozasertib] (partner 0.1 µM)
How it was run: as §1

Avagacestat + Crizotinib = compound: NC(=O)[C@@H](CCC(F)(F)F)N(Cc1ccc(-c2ncon2)cc1F)S(=O)(=O)c1ccc(Cl)cc1 [Avagacestat] + C[C@@H](Oc1cc(-c2cnn(C3CCNCC3)c2)cnc1N)c1c(Cl)ccc(F)c1Cl [Crizotinib] (partner 1 µM)
How it was run: as §1

Cell Line	relative viability (Avagacestat + Decitabine; first compound 0.08 µM)	relative viability (Avagacestat + Decitabine; first compound 0.253 µM)	relative viability (Avagacestat + Decitabine; first compound 0.8 µM)	relative viability (Avagacestat + Decitabine; first compound 2.53 µM)	relative viability (Avagacestat + Decitabine; first compound 8 µM)	relative viability (Avagacestat + Lapatinib; first compound 0.08 µM)	relative viability (Avagacestat + Lapatinib; first compound 0.253 µM)	relative viability (Avagacestat + Lapatinib; first compound 0.8 µM)	relative viability (Avagacestat + Lapatinib; first compound 2.53 µM)	relative viability (Avagacestat + Lapatinib; first compound 8 µM)	relative viability (Avagacestat + Tozasertib; first compound 0.08 µM)	relative viability (Avagacestat + Tozasertib; first compound 0.253 µM)	relative viability (Avagacestat + Tozasertib; first compound 0.8 µM)	relative viability (Avagacestat + Tozasertib; first compound 2.53 µM)	relative viability (Avagacestat + Tozasertib; first compound 8 µM)	relative viability (Avagacestat + Crizotinib; first compound 0.08 µM)	relative viability (Avagacestat + Crizotinib; first compound 0.253 µM)	relative viability (Avagacestat + Crizotinib; first compound 0.8 µM)	relative viability (Avagacestat + Crizotinib; first compound 2.53 µM)	relative viability (Avagacestat + Crizotinib; first compound 8 µM)
LXF-289	0.359	0.368	0.408	0.347	0.331	0.895	0.921	0.886	0.892	0.814	0.19	0.119	0.211	0.131	0.212	0.852	0.941	0.795	0.816	0.774
NCI-H23	0.416	0.316	0.308	0.328	0.272	1.61	1.29	1.17	1.05	1.32	0.378	0.535	0.406	0.362	0.359	0.547	0.473	0.627	0.471	0.345
NCI-H322M	0.736	0.626	0.729	0.629	0.611	0.556	0.555	0.601	0.504	0.432	0.491	0.51	0.5	0.454	0.474	0.874	1.03	0.952	0.934	0.787
NCI-H358	0.251	0.264	0.19	0.212	0.219	0.418	0.438	0.571	0.469	0.427	0.106	0.0996	0.102	0.101	0.107	0.555	0.579	0.457	0.609	0.545
NCI-H460	0.628	0.703	0.481	0.417	0.419	1.16	1.49	1.58	0.916	0.726	0.616	0.651	0.492	0.156	0.155	1.86	1.69	0.977	0.893	0.853
NCI-H520	0.606	0.501	0.467	0.453	0.475	1.03	0.878	0.846	0.724	0.663	0.417	0.48	0.42	0.3	0.36	0.895	0.836	0.729	0.727	0.459
NCI-H596	1.09	1.01	1.28	0.906	0.928	1.09	1.03	1.15	1.11	0.944	0.979	0.784	0.774	0.754	0.827	1.1	0.944	1.02	0.78	0.925
NCI-H647	0.459	0.465	0.42	0.374	0.377	1.42	1.13	1.25	1.09	0.811	–	0.319	0.199	0.263	0.0556	1.31	1.41	1.19	1.03	1.07
NCI-H650	0.33	0.324	0.317	0.328	0.367	1.2	1.04	1.03	1.1	0.835	0.872	0.973	0.761	0.65	0.702	0.625	0.762	0.692	0.744	0.823
NCI-H661	0.585	0.568	0.608	0.56	0.558	0.508	0.594	0.473	–	0.497	0.356	0.381	0.361	0.363	0.37	1.12	1.06	1.05	1.3	0.968
NCI-H727	0.889	0.815	1.06	0.836	0.875	0.939	0.875	1.19	0.876	0.671	0.614	0.686	0.592	0.489	0.489	0.986	0.956	1.08	0.946	0.775
NCI-H838	0.483	0.48	0.466	0.471	0.442	1.5	1.04	1.13	0.865	0.835	0.277	0.286	0.269	0.276	0.269	0.932	1.09	0.906	0.858	0.764
NCI-H1355	0.357	0.329	0.371	0.344	0.309	1.24	1.15	1.1	0.926	0.871	0.523	0.534	0.593	0.454	0.392	1.19	1.14	0.997	0.872	0.866
NCI-H1437	0.643	0.668	0.654	0.598	0.628	1.07	0.972	0.878	0.69	0.602	0.416	0.457	0.41	0.377	0.307	1.14	1.1	1.12	1.05	0.824
NCI-H1650	0.432	0.558	0.457	0.432	0.416	1.02	0.825	0.695	0.884	0.853	0.47	0.378	0.468	0.393	0.333	1.07	0.967	1.37	0.916	1.06
NCI-H1651	0.636	0.665	0.734	0.611	0.607	1.11	1.03	0.883	0.762	0.672	0.955	0.862	0.719	0.609	0.585	1	0.928	0.896	0.879	0.863

Cell Line	relative viability (Avagacestat + Decitabine; first compound 0.08 µM)	relative viability (Avagacestat + Decitabine; first compound 0.253 µM)	relative viability (Avagacestat + Decitabine; first compound 0.8 µM)	relative viability (Avagacestat + Decitabine; first compound 2.53 µM)	relative viability (Avagacestat + Decitabine; first compound 8 µM)	relative viability (Avagacestat + Lapatinib; first compound 0.08 µM)	relative viability (Avagacestat + Lapatinib; first compound 0.253 µM)	relative viability (Avagacestat + Lapatinib; first compound 0.8 µM)	relative viability (Avagacestat + Lapatinib; first compound 2.53 µM)	relative viability (Avagacestat + Lapatinib; first compound 8 µM)	relative viability (Avagacestat + Tozasertib; first compound 0.08 µM)	relative viability (Avagacestat + Tozasertib; first compound 0.253 µM)	relative viability (Avagacestat + Tozasertib; first compound 0.8 µM)	relative viability (Avagacestat + Tozasertib; first compound 2.53 µM)	relative viability (Avagacestat + Tozasertib; first compound 8 µM)	relative viability (Avagacestat + Crizotinib; first compound 0.08 µM)	relative viability (Avagacestat + Crizotinib; first compound 0.253 µM)	relative viability (Avagacestat + Crizotinib; first compound 0.8 µM)	relative viability (Avagacestat + Crizotinib; first compound 2.53 µM)	relative viability (Avagacestat + Crizotinib; first compound 8 µM)
NCI-H1666	0.892	0.858	0.953	0.81	0.882	0.858	0.877	0.756	0.639	0.523	0.726	0.602	0.706	0.582	0.586	1.3	1.09	1.23	1.03	0.957
NCI-H1734	0.608	0.499	0.482	0.482	0.491	1.52	1.26	1.11	1.07	1.07	0.235	0.301	0.264	0.236	0.24	0.969	0.755	0.705	0.733	0.575
NCI-H1755	0.732	0.665	0.755	0.718	0.72	1.05	1.29	1.22	1.04	1.02	0.641	0.562	0.575	0.624	0.54	1.04	1.01	0.928	0.865	0.832
NCI-H1915	0.259	0.266	0.283	0.237	0.265	0.965	1.12	1.12	0.988	0.949	0.51	0.48	0.464	0.393	0.398	0.924	1.15	0.964	0.912	0.889
NCI-H1944	0.452	0.475	0.402	0.406	0.428	0.714	0.937	0.77	0.669	0.756	0.256	0.314	0.232	0.222	0.257	1.09	1.2	0.958	0.915	0.919
NCI-H1975	0.371	0.355	0.425	0.341	0.412	0.852	1.1	1.03	0.935	0.859	1.01	0.945	0.928	0.603	0.367	0.989	1.1	1.1	0.926	0.905
NCI-H1993	0.618	0.583	0.618	0.611	0.564	0.956	0.659	0.738	0.731	0.674	0.604	0.594	0.529	0.541	0.539	0.925	0.777	1.03	0.907	0.879
NCI-H2009	0.412	0.384	0.386	0.332	0.395	0.963	0.995	0.857	0.993	0.814	0.879	0.836	0.812	0.61	0.532	1.04	1.14	1.01	1.04	0.975
NCI-H2023	0.255	0.257	0.288	0.221	0.218	0.979	0.89	0.822	0.617	0.7	0.513	0.479	0.396	0.289	0.254	0.751	0.78	0.583	0.577	0.602
NCI-H2085	0.531	0.609	0.639	0.572	0.585	0.805	0.939	0.912	0.728	0.811	0.849	0.894	0.842	0.803	0.829	0.928	0.975	1	1.04	0.811
NCI-H2087	0.3	0.279	0.374	0.25	0.257	1.33	1.04	1.05	1.25	1.06	0.218	0.286	0.277	0.248	0.237	1.18	1.01	0.906	1.07	0.843
NCI-H2126	0.615	0.661	0.577	0.575	0.611	0.767	0.837	0.805	0.722	0.657	0.81	0.859	0.906	0.334	0.778	1.07	1.14	0.977	1.04	1.04
NCI-H2170	0.462	0.437	0.481	0.495	0.501	0.297	0.265	0.291	0.275	0.296	0.807	0.782	0.812	0.72	0.646	1.27	1.59	1.2	1.38	0.976
NCI-H2347	0.661	0.654	0.631	0.553	0.6	0.997	0.966	1.04	0.923	0.909	0.452	0.52	0.526	0.519	0.503	0.693	0.74	0.692	0.511	0.66
NCI-H2405	0.758	0.703	0.692	0.673	0.684	1.02	1.12	1.21	0.958	1	0.718	0.751	0.747	0.714	0.661	0.881	0.825	0.81	0.849	0.853
NCI-H3122	0.513	0.428	0.445	0.402	0.37	1.1	1.1	1.03	1.05	0.99	0.446	0.517	0.419	–	0.384	0.318	0.287	0.291	0.289	0.288
